Measured values reported in patent publication US10752591B2, “18-20 member bi-polycyclic compounds” (Haro Pharmaceutical Inc., priority 2014, dated 2020).

Legend:
[1] = test system: BE-2C neuroblastoma cells; assay: cytotoxicity, cell survival (CellTiterGlo) in BE-2C; format: cell-based; conditions: BE-2C cells
Procedure: The cytotoxicity of compounds was examined and directly compared to compound 17, by measuring cell survival of clonal tumor cell lines IMR-32, BE2C (neuroblastoma), as well as MDA-MB-231, BT20, HCC-38 (Basal) and MCF7 (luminal) breast cancer cells (ATCC). Cells were cultured in phenol red-free RPMI medium supplemented with 10% FBS and 1 mM Ala-Glu. Typically, 10,000-20,000 cells/well were plated in a 96 well plate (Costar 3197). Cells were exposed to compounds or vehicle (1% DMSO final). Cells were maintained in the presence of compound for four or five days. Media and compounds were renewed every 48 hours. Cell survival was measured using the luminescence CellTiterGlo kit (Promega Corporation) and expressed as relative light unit as fold over DMSO.

[2] = test system: purified rat liver HDAC; assay: purified rat liver HDAC inhibition; format: biochemical; conditions: relative to compound 17
Procedure: (§1) The effect of compounds on the enzymatic activity of purified recombinant human HDAC-1, -2, -3, -6, and -8 activity and of purified rat liver HDAC was examined by measuring the deacetylation of synthetic peptides in various preparations of HDACs. HDAC assays were performed using a two-step enzymatic reaction where enzyme activity is correlated to the release of […] (AMC). AMC fluorescence is measured in a fluorescent plate reading using λex380 nm and λen440 nm.
(§2) The reaction was allowed to proceed for 40 min at 37° C., after which developer solution (0.5% trypsin, 10 μM trichostatin A (TSA)) was added to obtain a final concentration of 0.1% trypsin, 2 μM TSA. After 30 minutes at room temperature, the amount of free fluorogenic AMC was measured as described above.

[3] = test system: C2Cl2 cells; assay: myoblast fusion in long term C2Cl2 cultures (MHC immunocytochemistry); format: cell-based; conditions: long-term culture, suboptimal RPMI media with 2% horse serum
Procedure: The effect of compounds on myoblast fusion was examined in C2Cl2 cells maintained in RPMI media supplemented with 2% horse serum. C2Cl2 myoblastic cells where purchased from the American Type Culture Collection (ATCC) and maintained undifferentiated in RPMI media (Corning) supplemented with 2 mM L-Alanine-L-Glutamine (ATCC) and 1 mM pyruvate (Corning). Undifferentiated cells where maintained below 70% confluence. For long term cultures and compound treatment, cells where plated at high density CellBIND Culture Dishes (corning 3294, 3296, 3337) and in RPMI supplemented with 2% Horse Serum (Gibco) and 2 mM L-Alanine-L-Glutamine (ATCC) and 1 mM pyruvate (Corning). Compounds were dissolved in DMSO at 1000 time the final concentration and diluted 1-in-1000 in the media covering the cells. Media and compounds were changed daily. For immunocytochemistry, cells were fixed in 2% PFA in HBSS for 10 minutes and left in HBSS at 4° under humidified atmosphere and processed for immunocytochemistry. For myosin heavy chain detection (MHC), cells were first incubated in 100 ul-1 ml 0.15 M Glycine in DPBS for 10 minutes, rinse with DPBS. 100 ul-1 ml 0.5% Triton-X in DPBS was added for 10 minutes, rinsed with DPBS, and followed by incubation with 100 ul blocking agent (10% goat serum in DPBS) for 30 min at room temperature. MF20 primary antibody in 10% goat serum in DPBS was added at 1/60 dilution for 30 min at room temperature and rinsed three times with 100 ul DPBS. IgG2b goat anti mouse secondary antibody (Jackson Immuno-Research) was added at 1:1000 in 10% goat serum in DPBS for exactly 30 min at room temperature then rinsed 3 times with 100 ul DPBS. A final rinse in H2O was performed and cells were covered with two drops of Elvanol and cover gently with cover slip and allowed to dry in the dark for 24-48 hours.

[4] = test system: Lys40 acetylated alpha tubulin; assay: intracellular acetylation of alpha-tubulin in BE-2C cells; format: cell-based
Procedure: The effect of certain compounds on intracellular acetylation of target proteins was tested in high risk neuroblastoma cells, BE-2C and IMR-32 cells.
BE-2C cells were grown to confluence in phenol-red-free RPMI media supplemented with 10% FBS and 2.5 mM Ala-Glu. […] Total and Lys 40 acetylated alpha tubulin were detected using specific antibodies.
Beta actin, total and Lys382 acetylated p53, and Lys40 acetylated alpha, and total tubulin were detected using antibodies (Cell Signaling #8557, #2524 #2525, #12152 and #2144 respectively) using manufacturer recommended conditions.

[5] = aqueous solubility; format: physicochemical
[6] = target: T1, purified recombinant human HDAC-8 (Homo sapiens, UniProt Q9BY41); assay: HDAC-8 enzymatic inhibition (Boc-Lys(Tfa)-AMC / HDAC-Glo I/II); format: biochemical; conditions: relative to compound 17
T1 construct: purchased Cayman Chem 10009465 (AMC assay (so in the source)); 19380 (HDAC-Glo assay)
T1 sequence (Q9BY41 1-377): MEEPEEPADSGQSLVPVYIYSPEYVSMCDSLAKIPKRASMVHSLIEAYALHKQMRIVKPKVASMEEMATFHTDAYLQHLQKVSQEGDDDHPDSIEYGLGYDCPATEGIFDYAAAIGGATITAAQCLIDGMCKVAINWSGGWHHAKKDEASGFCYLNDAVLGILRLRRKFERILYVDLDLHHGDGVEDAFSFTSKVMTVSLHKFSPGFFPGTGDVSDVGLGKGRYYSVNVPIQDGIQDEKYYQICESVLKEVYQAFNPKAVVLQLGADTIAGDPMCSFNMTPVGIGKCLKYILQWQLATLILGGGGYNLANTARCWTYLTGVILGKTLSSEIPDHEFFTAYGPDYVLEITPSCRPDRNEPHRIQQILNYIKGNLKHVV
Procedure: as §1
HDAC-8, HDAC-9, HDAC-10 and HDAC-11 were assayed using HDAC-Glo™ I/II Kit (Promega Corporation G6421) in a total volume of 110 μl following the manufacturer's instructions.
as §2

[7] = test system: C2Cl2 cells; assay: Q-RT PCR of myofiber-degradation associated genes in long term C2Cl2 cultures; format: cell-based; conditions: day 10, normalized for RPLP0
Procedure: Quantitative RT-PCR was performed on RNA prepared from cell treated as in Example 9. At day 10 of the experiment, cells were rinsed in HBSS (without calcium or magnesium) and RNA was prepared using FastLane Cell cDNA Kit (Qiagen). Quantitative PCR was performed using Eppendorf and SYBR amplification mix (Sigma-Aldrich) using the gene specific primer combination given in Table 3. Data were normalized for ribosomal housekeeping gene RPLP0

In the case of `CC1(C)CCC(C)(C)c2cc(-c3cc4cc(C(=O)NO)ccc4[nH]3)ccc21` [Compound 13], the “cytotoxic potency compared with compound 17, SAHA, Ricolinistat” value [1] is reported as “more potent than compound 17, SAHA or Ricolinistat”, the “times more potent than compound 17 in inhibition of purified rat hepatic HDAC” value [2] is reported as “seventy” and the “fusion of single cells into multinucleated C2Cl2 myotubes” value [3] is reported as “enhances the fusion”. The “alpha tubulin acetylation by LC-MS analysis” value [4] was “lack of increased alpha tubulin acetylation”, the “Lysin (K) 40 alpha-Tubulin acetylation” value ([4]; 5 μM, 16 hours) was “no significant acetylation” and the aqueous solubility [5] was “improved”. For the same compound, the “times/fold more potent than compound 17 in HDAC-8 inhibition” value [6] was “at least 13”, the “expression of Atrogin” value [7] was “downregulates” and the expression of myogenin [7] was “downregulates”.
